Experimental data as given in patent US11008335B2, “Positive allosteric modulators of the muscarinic acetylcholine receptor M4” (Vanderbilt University, priority 2016, dated 2021).
Where a name gives a salt, the structure may show the parent alone.

Molecular target: T1, Human M4 (Homo sapiens, UniProt P08173)
T1 sequence (P08173 1-479): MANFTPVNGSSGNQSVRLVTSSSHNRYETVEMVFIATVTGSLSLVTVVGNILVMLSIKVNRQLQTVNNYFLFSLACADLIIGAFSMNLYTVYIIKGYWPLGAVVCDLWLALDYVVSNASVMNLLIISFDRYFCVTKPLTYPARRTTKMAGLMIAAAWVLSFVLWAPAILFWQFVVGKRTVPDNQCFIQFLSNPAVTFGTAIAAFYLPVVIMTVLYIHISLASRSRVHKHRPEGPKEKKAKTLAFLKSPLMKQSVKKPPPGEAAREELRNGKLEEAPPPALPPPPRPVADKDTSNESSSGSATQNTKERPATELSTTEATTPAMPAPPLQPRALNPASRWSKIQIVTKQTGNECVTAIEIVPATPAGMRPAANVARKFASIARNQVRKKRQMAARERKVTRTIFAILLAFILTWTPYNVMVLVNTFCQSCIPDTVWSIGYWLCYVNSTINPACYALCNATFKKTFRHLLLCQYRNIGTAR
Assay: mAChR M4 cell-based functional assay (calcium flux, potentiation of EC20 acetylcholine response)
Design: Emax: dose or concentration left out as unconfirmed
Conditions: for Emax: CHO-K1

SMILES | EC50 | Emax
[2H]C([2H])(Nc1nncc2c1sc1nnc(C)c(C)c12)c1ccc(C(C)(C)O)cc1 [Compound 13, 2-(4-(((3,4-dimethylthieno[2,3-c:4,5-d′]dipyridazin-8-yl)amino)methyl-d2)phenyl)propan-2-ol] | 727 nM | 91.9%
COCCCNc1nncc2c1sc1nc(C)c(Cl)c(C)c12 [Compound 7, 3-chloro-N-(3-methoxypropyl)-2,4-dimethylpyrido[3′,2′:4,5]thieno[2,3-d]pyridazin-8-amine hydrochloride] | 340 nM | 70%
[2H]C([2H])([2H])C(O)(c1ccc(CNc2nncc3c2sc2nnc(C)c(C)c23)cc1)C([2H])([2H])[2H] [Compound 14, 2-(4-(((3,4-dimethylthieno[2,3-c:4,5-d′]dipyridazin-8-yl)amino)methyl)phenyl)propan-1,1,1,3,3,3-d6-2-ol] | 746 nM | 89.4%
Cc1nnc2sc3c(NCc4ccc(C(C)(C)O)cc4)nncc3c2c1C [Compound 12, 2-(4-(((3,4-dimethylthieno[2,3-c:4,5-d′]dipyridazin-8-yl)amino)methyl)phenyl)propan-2-ol] | – | 99.4%
COc1ccc(CNc2nncc3c2sc2nc(C)c(Cl)c(C)c23)cc1F [Compound 5, 3-chloro-N-(3-fluoro-4-methoxybenzyl)-2,4-dimethylpyrido[3′,2′:4,5]thieno[2,3-d]pyridazin-8-amine] | 1310 nM | 69.4%
Cc1nc2sc3c(N4CC5CC5C4)nncc3c2c(C)c1Cl (stereo not drawn) [Compound 3, 8-(3-azabicyclo[3.1.0]hexan-3-yl)-3-chloro-2,4-dimethylpyrido[3′,2′:4,5]thieno[2,3-d]pyridazine] | 480 nM | 80.4%
Cc1nc2sc3c(NCc4ccc(OC(F)F)cc4)nncc3c2c(C)c1Cl [Compound 4, 3-chloro-N-(4-(difluoromethoxy)benzyl)-2,4-dimethylpyrido[3′,2′:4,5]thieno[2,3-d]pyridazin-8-amine] | 540 nM | 41%
Cc1nnc2sc3c(N4CCCC4)nncc3c2c1C [Compound 15, 3,4-dimethyl-8-(pyrrolidin-1-yl)thieno[2,3-c:4,5-d′]dipyridazine] | – | 95.8%
Cc1nc2sc3c(NC4CC4)nncc3c2c(C)c1Cl [Compound 11, 3-chloro-N-cyclopropyl-2,4-dimethylpyrido[3′,2′:4,5]thieno[2,3-d]pyridazin-8-amine hydrochloride] | 81 nM | 100%

Continued, values first:

EC50 | Emax | SMILES
214 nM | 70.3% | Cc1nnc2sc3c(N4CC[C@H](Oc5cccnc5)C4)nncc3c2c1C [Compound 20, (S)-3,4-dimethyl-8-(3-(pyridin-3-yloxy)pyrrolidin-1-yl)thieno[2,3-c:4,5-d′]pyridazine]
779 nM | 77.4% | Cc1nnc2sc3c(NCc4ccc(C(C)(C)CO)cc4F)nncc3c2c1C [Compound 16, 2-(4-(((3,4-dimethylthieno[2,3-c:4,5-d′]dipyridazin-8-yl)amino)methyl)-3-fluorophenyl)-2-methylpropan-1-ol]
1630 nM | 50.4% | Cc1nc2sc3c(N4CCCC4)nnc(C)c3c2c(C)c1Cl [Compound 21, 3-Chloro-2,4,5-trimethyl-8-(pyrrolidin-1-yl)pyrido[3′,2′:4,5]thieno[2,3-d]pyridazine]
560 nM | 72.7% | Cc1nnc2sc3c(NCc4ccc(-n5cccn5)cc4)nncc3c2c1C [Compound 18, N-(4-(1H-pyrazol-1-yl)benzyl)-3,4-dimethylthieno[2,3-c:4,5-d′]dipyridazin-8-amine]
– | 86.7% | COc1ccc(CNc2nncc3c2sc2nnc(C)c(C)c23)cc1F [Compound 17, N-(3-fluoro-4-methoxybenzyl)-3,4-dimethylthieno[2,3-c:4,5-d′]dipyridazin-8-amine]
2110 nM | 51.3% | Cc1nnc2sc3c(N4CC(Oc5cccnc5)C4)nncc3c2c1C [Compound 19, 3,4-dimethyl-8-(3-(pyridin-3-yloxy)azetidin-1-yl)thieno[2,3-c:4,5-d′]dipyridazine]
